In series [1] the target is T1, cytosolic NMT (N-myristoyltransferase) of L1210 cells (Mus musculus, UniProt O70310).
T1 construct: The supernatant is then used as a source of NMT; endogenous in cells; host or cells: L1210 murine leukemia cells, cytosol (105,000 g supernatant)
T1 sequence (O70310 1-496): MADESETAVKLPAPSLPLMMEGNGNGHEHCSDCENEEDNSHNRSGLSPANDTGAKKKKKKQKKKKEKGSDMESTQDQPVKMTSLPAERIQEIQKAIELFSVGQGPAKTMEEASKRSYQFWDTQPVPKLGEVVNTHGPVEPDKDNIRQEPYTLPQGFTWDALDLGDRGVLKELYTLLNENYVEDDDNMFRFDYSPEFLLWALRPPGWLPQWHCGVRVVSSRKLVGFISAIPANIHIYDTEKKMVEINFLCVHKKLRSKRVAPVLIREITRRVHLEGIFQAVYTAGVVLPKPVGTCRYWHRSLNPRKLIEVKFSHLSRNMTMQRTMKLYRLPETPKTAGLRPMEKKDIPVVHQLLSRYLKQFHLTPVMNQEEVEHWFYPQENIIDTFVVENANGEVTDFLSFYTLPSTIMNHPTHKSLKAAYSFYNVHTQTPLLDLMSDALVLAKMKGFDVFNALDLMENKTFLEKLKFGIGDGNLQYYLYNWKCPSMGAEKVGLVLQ
In words: Inhibition of the cytosolic NMT activity of cancerous L1210 cells. It is filed as biochemical, murine. The method, then:
Mass-cultured L1210 cells (murine leukemia) are used as a source of […].
They are cultured in RPMI 1640 supplemented with 50 U/ml of penicillin, […] of streptomycin, 2 mM of glutamine, 10 mM HEPES and 10% of fetal calf serum, maintained in a 5% CO2 /95% air atmosphere and at 37° C.
They are harvested and then washed in PBS by centrifuging at low speed. The final cell pellet is resuspended in a 50 mM HEPES buffer, pH 7.4, containing 2 mM EGTA, 1 mM DTT and 1 mM PMSF. The cells are opened by sonication at 4° C. and homogenized by a to and fro movement in a glass/glass Potter. The cell homogenate is then centrifuged at low speed (10,000 rpm, 10 minutes) in order to precipitate the cell debris and the supernatant is subjected to ultracentrifugation at 105,000 g for 1 hour.
The supernatant is then used as a source of NMT. The measurement of activity is carried out according to the method described by Towler and Glazer (PNAS, 1986, 83, 2812) using as substrate peptide either the peptide derived from the NH2 terminal of the pp60src oncogene product: GSSKSKPKDP (DP), or the peptide derived from the NH2 terminal of the gag product, a structural protein of the Maloney murine leucemic virus: GQTVTTPL (T3) at a final concentration of 0.3 mM.

A further series relates to HL60 cells. The series can be described thus: Differentiation of cultured HL60 cells. It counts as cell-based, human. The method, then: Cultured HL60 cells are treated for 6 days with the compounds dissolved in a minimum of methanol at 9 different concentrations. The doses chosen encompass the IC50 determined beforehand using the MTT test (Carmichael et al., Cancer Res., 1986, 47, 936).
The cells are washed (450 μl), resuspended in the same volume of complete medium and incubated for 1 hour at 37° C. in the presence of 7 ug/ml of DNA-specific fluorochrome.
The measurements, which are carried out by means of a laser cytometer, make it possible to estimate the percentage of cells accumulated, and therefore differentiated, in the G0 and G1 phase of the cell cycle.

Series [2] can be described thus: Toxicity on CEM cells in the HIV protection test. It counts as cell-based. The following applies: human, method of WEISLOW et al., unit printed m, read-out: toxicity (IC50). From the text:
The method used is described by WEISLOW et al. (J. Natl. Cancer Inst., 1989, 81, 577).

A further series deals with HIV-1 virus. In words: Protective effect on CEM cells against infection by the HIV virus. It counts as cell-based. From the text:
The method used is described by […] et al. (J. Natl. Cancer Inst., 1989, 81, 577).

For series [3], the target named is T2, microsomal NMT of CEM cells (Homo sapiens, UniProt P30419).
T2 construct: The pellet (microsomes) and the supernatant (cytosol) are recovered independently and then frozen; endogenous in cells; host or cells: CEM immortalized T lymphocytes, microsomal pellet (105,000 g), treated with Triton 770
T2 sequence (P30419 1-496): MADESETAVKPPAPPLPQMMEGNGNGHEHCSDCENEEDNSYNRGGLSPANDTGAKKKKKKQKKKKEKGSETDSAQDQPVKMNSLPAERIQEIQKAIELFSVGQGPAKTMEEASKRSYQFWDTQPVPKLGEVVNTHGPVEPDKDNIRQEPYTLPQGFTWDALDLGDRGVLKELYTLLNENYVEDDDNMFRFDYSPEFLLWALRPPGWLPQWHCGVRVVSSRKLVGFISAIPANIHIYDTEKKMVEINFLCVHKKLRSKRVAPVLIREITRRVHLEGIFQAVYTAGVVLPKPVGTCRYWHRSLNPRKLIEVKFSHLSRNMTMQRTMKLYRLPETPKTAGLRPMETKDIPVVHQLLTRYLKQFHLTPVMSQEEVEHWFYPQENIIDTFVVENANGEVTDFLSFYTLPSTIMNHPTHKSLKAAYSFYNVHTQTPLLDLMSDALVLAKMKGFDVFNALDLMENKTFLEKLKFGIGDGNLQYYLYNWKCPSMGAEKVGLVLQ
The series can be described thus: Inhibition of the myristoylation of a gag-derived peptide of HIV-1 (subtype BRU), microsomal fraction of CEM cells. It is filed as biochemical. The settings on record: 20-AA p18 peptide of HIV-1 (subtype BRU), 30 minutes at 37° C., read-out: IC50 during incubation with the microsomal fraction. The method, then: Immortalized T lymphocytes (CEM) are mass- cultured as described in Example 57, and then harvested by centrifugation and washed in PBS.
These cells are sonicated (3 brief periods of 10 seconds) and then homogenized in a glass/glass Potter.
This homogenate, in which all the cells have been opened (checked under a microscope), is subjected to centrifugation for 1 h 10) at 105,000 g. The pellet (microsomes) and the supernatant (cytosol) are recovered independently and then frozen.
The NMT activity is then measured following the procedure of Towler and Glaser but stopping the reaction with […] of acetonitrile in order to avoid precipitation of the myristoylated peptide. This 20-AA peptide: NH2^[…] COOH, is derived from p18 of the HIV-1 virus (subtype BRU).
These experimentations are carried out using a cytosolic (40 μl) or microsomal (20 μl treated with 4 μl of 10% Triton 770) source of CEM cells in the presence of increasing concentrations of the compounds of the invention (1 to 1,000 μM, final). The samples, incubated for 30 minutes at 37° C. and stopped with 200 μl of acetonitrile, are then analyzed by HPLC and the myristoylation of p18 quantified.

Where [4] appears, read: HL60 cells, 6 days, cells accumulated in G0 and G1 phase, laser cytometer.

SMILES strings stand for the structures. pEC50, pIC50: −log10 of the molar value. Like-named read-outs stand apart in the source and are kept apart here.

`CCCCCCCCCCCCCC(=O)NC(Cc1ccccc1)P(=O)(O)OCC` (stereo not drawn) [Example 16, ETHYL 1-MYRISTOYLAMINO-2-[…]] gave a pIC50 in series [1] of 5.70. Also, in the series on HL60 cells (144 h), the “doses to which the marked differentiating effect can extend” value was “below 50 ug/ml”.
With `COCCCCCCCCCCCC(=O)N[C@@H](Cc1ccccc1)C(=O)O` [Example 49, N-(12-METHOXYLAUROYL)-(S)-PHENYLALANINE], the CC50 in series [2] was found to be 200 µM. Further, the “doses to which the marked differentiating effect can extend” value with HL60 cells (setting [4]) is listed as “below 50 ug/ml”. The compound also gave a pEC50 in the series with HIV-1 virus (Human immunodeficiency virus 1, CCRF-CEM, HIV infection, method of WEISLOW et al.) of 5.00. For the same compound, the therapeutic index in the series on HIV-1 virus (toxicity IC50 / protective EC50) turned out to be 20.
Take `CCCCCCCCCCCCCC(=O)N1Cc2ccccc2C[C@H]1C(=O)O` [Example 1, N-Myristoyl-3-(S)-carboxy-(1,2,3,4)-tetrahydroisoquinoline]: the pIC50 is 4.00 in series [3] and 6.74 in series [1] (cytosolic NMT of L1210 cells, substrate peptide DP (pp60src) or T3 (gag), 0.3 mM, read-out: IC50). Further, the “doses to which the marked differentiating effect can extend” value with HL60 cells (setting [4]) is “below 50 ug/ml”.

By pIC50 is commonly meant the negative decadic logarithm of the IC50, by convention in mol/L. Broadly, the pEC50 is the EC50 on a negative log10 scale, so that one unit is a factor of ten. Read a low pEC50 as a high EC50.

The values above are taken from patent US5266576A, “N-myristoyl transferase inhibitors” (Adir et Compagnie, priority 1991, dated 1993).
